From patent US4318916A, “Antibiotic PS-5 and derivatives having β-lactamase inhibitory activity and production thereof” (Sanraku-Ocean Co., Ltd., priority 1977, dated 1982) come the findings set out here.

In one series the test system is male ddy mice. Type of series: in vivo. Particulars: 500 mg/kg intraperitoneally. As to the method: An aqueous solution of the antibiotic PS-5 sodium salt was intraperitoneally administered to male ddy mice (Shizuoka) at the dose of 500 mg/kg.
Series [1] concerns Staphylococcus aureus Smith. Briefly: Therapeutic activity of antibiotic PS-5 sodium salt in infected mice. The format is in vivo. Particulars: sc; male ddy mice infected i.p. with 5×10^5 cells/mouse Staphylococcus aureus Smith; subcutaneously injected soon after infection; read-out: 50% curative dose. The source says: The therapeutic activity of the antibiotic PS-5 sodium salt was studied by treating mice intraperitoneally infected with 5×10^5 cells/mouse of Staphylococcus aureus Smith. Soon after the infection, an aqueous solution of the antibiotic PS-5 sodium salt was subcutaneously injected.

Series [2] concerns Comamonas terrigena B-996. Briefly: Disc bio-assay of antimicrobial activity, cephaloridine equivalent units. Type of series: cell-based. Particulars: Comamonas-cephaloridine units per mg of the final purified preparation. How it is done:
The overnight culture of Comamonas terrigena B-996 on a nutrient agar slant was suspended in nutrient broth so as to give an optical cell density of 0.040 at 610 nm.
The seed suspension was added in a 1% amount to a molten agar medium containing 0.8% Kyokuto Nutrient Broth Powder (Kyokuto Pharmaceutical Industries Co.) and 1.0% Bacto-Agar (Difco Laboratories). Seven milliliters of the seeded molten agar medium were distributed in a Petri dish (9 cm in diameter) and solidified). This is defined as a Comamonas assay plate.
An 8 mm pulp disc was usually soaked with a sample solution to be assayed, left on a clean sheet of filter paper for a sufficient time to remove the excess solution and then transferred onto an assay plate. After incubation at 35° C. for 20 hours, the diameter of the observed inhibition zone was measured and compared with standard solutions of cephaloridine. The antimicrobial activity of the antibiotic PS-5 and related compounds is expressed as cephaloridine equivalent units/ml.
As well known to those skilled in the art, the assay standard curve varies to some extent, depending on the species of the test microorganisms. […]

Series [3] in a line: Solubility of antibiotic PS-5. Type of series: physicochemical. Particulars: sodium salt preparation of Example 9.
The subject of series [4] is Diplococcus pneumoniae Type III. Nature of the series: MIC by broth dilution (Table 13). Type of series: cell-based. Particulars: Streptococcus pneumoniae, 20 h; Diplococcus pneumoniae Type III; read-out: MIC. As to the method: (§1) The MIC (minimum inhibitory concentration) values of the compound were determined on various pathogenic microorganisms including several resistant strains, utilizing the broth dilution method in BRAIN HEART INFUSION BROTH `Eiken` (EIKEN CHEMICAL CO., LTD.).
(§2) The results were read after incubation at 35° C. for 20 hours. The minimum inhibitory concentration (MIC) values means the lowest concentration unit of the tritylation product of the antibiotic PS-5 was no growth of the corresponding microorganism was observed under the above described conditions. As the control antibiotics,the solutions of ampicillin and cephaloridine were prepared in BRAIN HEART INFUSION BROTH `Eiken` (pH 7.0) at a concentration of 100 μg/ml and treated same as the test compound of the present invention.
On the technique in general: In broth dilution the organism is exposed to a series of concentrations in liquid medium.

A further series relates to Serratia marcescens S-18. Nature of the series: MIC by broth dilution (Table 13). Type of series: cell-based. Particulars: S18, 20 h. How it is done: as §1, §2
Series [5] deals with Streptococcus pyogenes NY-5. Nature of the series: MIC by broth dilution (Table 13). Particulars: NY5, 20 h; Streptococcus pyogenes NY-5; read-out: MIC. Type of series: cell-based. As to the method: as §1, §2
Series [6] deals with Enterobacter aerogenes E-19. Briefly: MIC by broth dilution (Table 13). Type of series: cell-based. Particulars: Klebsiella aerogenes, E19, 20 h. How it is done:
as §1, §2

For series [7], the system named is Pseudomonas aeruginosa P-1. Nature of the series: MIC by broth dilution (Table 13). Type of series: cell-based. Particulars: P1, 20 h; Pseudomonas aeruginosa P-1; read-out: MIC. As to the method:
as §1, §2

Series [8] concerns Alcaligenes faecalis B-326. Briefly: MIC by broth dilution (Table 13). The format is cell-based. Particulars: Alcaligenes faecalis, B326, 20 h. As to the method: as §1, §2
A further series concerns Proteus mirabilis P-6. Briefly: MIC by broth dilution (Table 13). The format is cell-based. Particulars: Proteus mirabilis, P6, 20 h. As to the method: as §1, §2
The next series deals with Escherichia coli K12. Briefly: MIC by broth dilution (Table 13). Type of series: cell-based. Particulars: 20 h. As to the method: as §1, §2
Series [9] deals with Staphylococcus aureus FDA 209p. Nature of the series: MIC by broth dilution (Table 13). Type of series: cell-based. Particulars: FDA209P, 20 h; Staphylococcus aureus FDA 209p; read-out: MIC. How it is done: as §1, §2
The subject of series [10] is Staphylococcus aureus Smith. Nature of the series: MIC by broth dilution (Table 13). Type of series: cell-based. Particulars: 20 h; Staphylococcus aureus Smith; read-out: MIC. As to the method:
as §1, §2

The subject of series [11] is Proteus vulgaris P-5. Briefly: MIC by broth dilution (Table 13). Particulars: P5, 20 h; Proteus vulgaris P-5; read-out: MIC. Type of series: cell-based. As to the method:
as §1, §2

Series [12] has as its system Klebsiella pneumoniae K-2. Nature of the series: MIC by broth dilution (Table 13). The format is cell-based. Particulars: K2, 20 h; Klebsiella pneumoniae K-2; read-out: MIC. As to the method: as §1, §2
The subject of series [13] is Enterobacter cloacae E-16. Briefly: MIC by broth dilution (Table 13). The format is cell-based. Particulars: E16, 20 h. As to the method: as §1, §2
For a further series, the system named is Enterobacter sp. E-8. Nature of the series: MIC by broth dilution (Table 13). Type of series: cell-based. Particulars: SP.E8, 20 h; Enterobacter sp. E-8; read-out: MIC. How it is done: as §1, §2
Another series concerns Citrobacter freundii E-9. Nature of the series: MIC by broth dilution (Table 13). Type of series: cell-based. Particulars: E9, 20 h; Citrobacter freundii E-9; read-out: MIC. As to the method:
as §1, §2

Another series concerns Proteus rettgeri P-7. Nature of the series: MIC by broth dilution (Table 13). Type of series: cell-based. Particulars: Providencia rettgeri, P7, 20 h; Proteus rettgeri P-7; read-out: MIC. As to the method:
as §1, §2

A further series relates to Sarcina lutea S-19. Nature of the series: MIC by broth dilution (Table 13). Type of series: cell-based. Particulars: Micrococcus luteus, S19, 20 h; Sarcina lutea S-19; read-out: MIC. How it is done:
as §1, §2

For series [14], the system named is Proteus vulgaris P-5. Nature of the series: Potentiation disc assay with cephaloridine (Table 10). The format is cell-based. Particulars: Proteus vulgaris P-5; for Inhibition zone With CER: 50 μg/ml cephaloridine in agar. How it is done:
(A) Ten milliliters of molten nutrient agar containing 50 μg/ml of penicillin G or cephaloridine, 0.8% of Kyokuto Nutrient Broth Powder and 1.0% of Difco Bacto-Agar (pH 7.0) were seeded with the beta-lactam-resistant, beta-lactamase-producing microorganisms indicated in Tables 9 and 10, and poured in a 9-cm Petri dish to provide the bio-assay agar plate. On this assay plate, 8-mm pulp discs containing 25 μl each of antibiotic PS-5 solutions at the indicated concentrations were placed and incubated at 35° C. for 18 hours before reading the inhibition zones. The control assay plate was similarly prepared without penicillin G nor cephaloridine. As reference antibiotics, penicillin G, ampicillin, oxacillin and cefazolin were disc-assayed under the same conditions.

≈ marks a conversion by molar mass, not a printed value. Counter-ions that a name gives are not always drawn.

For `CCC1C(=O)N2C(C(=O)O)=C(SCCNC(C)=O)CC12` (centres unmarked) [antibiotic PS-5 sodium salt], in the series on male ddy mice, the “Deaths after intraperitoneal administration” value is “No dead was recorded”. Also, the ED50 in series [1] amounted to 2.45 mg/kg. Further, the Specific activity in series [2] is listed as 21,000 CCU/mg. In series [3], the Solubility in acetone result was “substantially insoluble” and the Solubility in water entry is recorded as “Soluble”.
In the case of `CC1(C)S[C@@H]2[C@H](NC(=O)[C@H](N)c3ccccc3)C(=O)N2[C@H]1C(=O)O` [Ampicillin, ampicillin], the MIC – broadly, the smallest concentration in the dilution series that meets the test's criterion for growth inhibition – in series [4] was 0.04 mg/L (≈ 0.114 µM); against Serratia marcescens S-18 it was 50 mg/L (≈ 143 µM); in series [5], 0.02 mg/L (≈ 0.0572 µM); in [6], > 100 mg/L; in [7] it was 50 mg/L (≈ 143 µM); in [8] it was 6.25 mg/L (≈ 17.9 µM). In addition, the MIC is 3.13 mg/L (≈ 8.96 µM) against Proteus mirabilis P-6; 3.13 mg/L (≈ 8.96 µM) in the series on Escherichia coli K12; 0.2 mg/L (≈ 0.572 µM) in series [9]; 0.2 mg/L (≈ 0.572 µM) in series [10]; > 100 mg/L in the series with Proteus vulgaris P-5 [11]; > 100 mg/L in [12]. The MIC in [13] was > 100 mg/L; in the series on Enterobacter sp. E-8 it was > 100 mg/L; with Citrobacter freundii E-9 it was > 100 mg/L; in the series on Proteus rettgeri P-7, 50 mg/L (≈ 143 µM); with Sarcina lutea S-19, 0.05 mg/L (≈ 0.143 µM). The zone of inhibition at 625 µg/mL in the series on Proteus vulgaris P-5 [14] (P5, 18 h, reference antibiotic 625 μg/ml, read-out: Inhibition zone Without CER) was 0 mm. Also, the zone of inhibition at 2500 µg/mL in the series on Proteus vulgaris P-5 [14] (P5, 18 h, reference antibiotic 2,500 μg/ml, read-out: Inhibition zone Without CER) worked out at 0 mm. Moreover, the zone of inhibition at 10000 µg/mL in the series with Proteus vulgaris P-5 [14] (P5, 18 h, reference antibiotic 10,000 μg/ml, read-out: Inhibition zone Without CER) amounted to 14.7 mm. In the series on Proteus vulgaris P-5 [14] (disc assay, Table 10), the “Potentiation of the antimicrobial activity of cephaloridine” value is reported as “could not increase the antimicrobial activity of cephaloridine”. The “Inhibition zone With CER” value stood at 0 mm in the series with Proteus vulgaris P-5 [14] (reference antibiotic 625 μg/ml), 0 mm in the series on Proteus vulgaris P-5 [14] (reference antibiotic 2,500 μg/ml) and 12.9 mm with Proteus vulgaris P-5 [14] (reference antibiotic 10,000 μg/ml).
